Experimental findings from article PMC9917184, “Synthesis and Biological Evaluation of Potential Oncoimmunomodulator Agents” (International Journal of Molecular Sciences, 2023) are described below.

For assay [1], the system named is c-Myc. The assay can be described thus: Total c-Myc relative quantification by flow cytometry in cancer cell lines. The assay is classed as cell-based, human. The settings on record: 24 h.
In assay [2] the test system is c-Myc gene expression. The assay can be described thus: c-Myc gene expression by RT-qPCR in MCF-7. The assay is classed as cell-based, human. The settings on record: MCF-7, 100 µM, 48 h, control = 100. Here is the method:
We also studied the effect of compounds 3, 5, and 7 on both c-Myc and PD-L1 gene expression by RT-qPCR. For this study, we treated MCF-7 cells with 100 µM of the abovementioned compounds, and DMSO was used as a negative control and BMS-8 as a reference compound. After 48 h, cells were lysated, and after the extraction of their mRNA, a RT-pPCR assay was performed as described in the Experimental section.
MCF-7 cells at 70–80% confluence were collected, and 1.5 × 10^5 cells were placed in a six-well plate in 1.5 mL of medium. After 24h, cells were incubated with the corresponding compounds for 48 h. Cells were collected, and the total cellular RNA from MCF-7 cells was isolated using the Ambion RNA extraction kit according to the manufacturer’s instructions. The cDNA was synthesized by MMLV-RT with […] of extracted RNA and oligo(dT)15 according to the manufacturer’s instructions. Genes were amplified by a thermal cycler and StepOnePlus™ TaqMan® probes. TaqMan® Gene Expression Master Mix Fast containing the appropriate buffer for the amplification conditions, dNTPs, thermostable DNA polymerase enzymes, and a passive reference probe was used. To amplify each of the genes, the predesigned primers sold by Life Technologies TaqMan® Gene Expression Assays, Hs99999903-m1 (β-actin), Hs00153408-m1 (c-Myc), and Hs00204257-m1, (PD-L1) were used.

The target of assay [3] is T1, PD-L1 (Homo sapiens, UniProt Q9NZQ7). The assay can be described thus: Immunofluorescence microscopy of PD-L1 in MCF-7. The format is cell-based. Further details: Alexa Fluor® 647 Rabbit monoclonal Anti-PD-L1 (ab215251); endogenous in cells; host or cells: MCF-7. The settings on record: MCF-7, 24 h of treatment. The text has this: We also observed the effect of triazole derivatives 3, 5 and 7 on both targets in MCF-7 by immunofluorescence microscopy (see Figure 2). We stained both targets with anti-PD-L1 conjugated to AlexaFluor®647 (red in Figure 2), as well as anti-c-Myc conjugated to fluorescein (green in Figure 2), to determine the amount of both targets. The nucleus was stained with Hoechst (blue in Figure 2).
We observed that in the DMSO control, c-Myc was located in the nucleus of the cell and the nucleus membrane nearby, and PD-L1 was preferentially positioned in the membrane or cytosol, favoring the contact between surrounding cells.
For immunofluorescence microscopy of the microtubule network, […] cells were plated on cover glass and incubated with the selected compounds. Cells were then fixed in 4% formaldehyde (in PBS pH 7.4) for 20 min at room temperature and permeabilized with PBS-Triton X-100 0.5% for 1 min at room temperature. Direct immunostaining was carried out for 1 h at room temperature with FITC Mouse monoclonal Anti-c-Myc (ab223913) and Alexa Fluor® 647 Rabbit monoclonal Anti-PD-L1 (ab215251). Then, cells were washed in PBS, and cover glasses were mounted with a drop of ProLong® antifade solution (Invitrogen). The cytoskeleton was imaged by a confocal laser scanning microscope (CLSM) Leica SP5 with a Leica inverted microscope, equipped with 20x objective. Each image was recorded with the CLSM’s spectral mode selecting specific domains of the emission spectrum. The FITC fluorophore was excited at 488 nm with an argon laser, and its fluorescence emission was collected between 496 nm and 535 nm.

Assay [4] has as its target T1, PD-L1. The assay can be described thus: Total PD-L1 relative quantification by flow cytometry in cancer cell lines. The format is cell-based. Further details: Alexa Fluor® 647 Rabbit monoclonal Anti-PD-L1 (ab215251); endogenous in cells; host or cells: HT-29. Conditions: 24 h, total PD-L1 relative to negative control (DMSO).
For assay [5], the target named is T2, membrane PD-L1 (Homo sapiens, UniProt Q9NZQ7).
T2 construct: Alexa Fluor® 647 Rabbit monoclonal Anti-PD-L1 (ab215251); endogenous in cells; host or cells: HT-29, MCF-7, A-549 (A17: MCF-7 only; A14: IFN-gamma-stimulated cancer cells co-cultured with Jurkat T cells)
The assay can be described thus: Membrane PD-L1 relative quantification by flow cytometry in cancer cells co-cultured with Jurkat T cells. The format is cell-based. Conditions: 24 h; for remaining activity at 100 µM / inhibition at 100 µM: Jurkat; for remaining activity at 100 µM: relative to non-treated co-cultures, read-out: % PDL1 (membrane); for inhibition at 100 µM: read-out: membrane PD-L1 inhibition rate. In a few lines:
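Interferon γ-stimulated human cancer cells co-cultured with Jurkat T cells and treated 24 h with compounds at 100 μM. Cells then fixed in 4% paraformaldehyde and co-stained with Alexa Fluor 647 anti-PD-L1 and FITC anti-VEGFR-2. Membrane levels quantified together by flow cytometry.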

The mark [6] stands for this setting: A-549, 100 µM, relative to negative control (DMSO).
The mark [7] stands for this setting: HT-29, 100 µM, detected target relative to negative control (DMSO).
Where [8] appears, read: MCF-7, 100 µM, relative to negative control (DMSO).
The mark [9] stands for this setting: A549 co-cultured with Jurkat T cells.
The mark [10] stands for this setting: HT29 co-cultured with Jurkat T cells.
[11] abbreviates: MCF7 co-cultured with Jurkat T cells.
Setting [12] is: MCF-7 co-cultured with Jurkat T cells.

Like-named read-outs stand apart in the source and are kept apart here.

T2 sequence (Q9NZQ7 19-290): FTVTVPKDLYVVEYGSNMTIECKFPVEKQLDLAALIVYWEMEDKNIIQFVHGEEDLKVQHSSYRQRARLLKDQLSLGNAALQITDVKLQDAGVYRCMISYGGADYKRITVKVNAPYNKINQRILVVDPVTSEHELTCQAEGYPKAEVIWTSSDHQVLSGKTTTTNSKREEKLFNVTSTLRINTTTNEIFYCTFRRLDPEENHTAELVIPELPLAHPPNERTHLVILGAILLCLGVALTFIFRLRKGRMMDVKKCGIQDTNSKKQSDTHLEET
T1 sequence (Q9NZQ7 19-290): as above

Take `COc1ccc(C(OCCc2ccc(CCn3cc(-c4ccc(Br)cc4)nn3)cc2)(c2ccccc2)c2ccc(OC)cc2)cc1` [Compound 3, 1-(4-(2-(bis(4-methoxyphenyl)(phenyl)methoxy)ethyl)phenethyl)-4-(4-bromophenyl)-1H-1,2,3-triazole]: the “% c-Myc” value in assay [1] (setting [6]) is on record as 66 ± 5%; in assay [1] (setting [7]), 67 ± 8%; in assay [1] (setting [8]) it was 65 ± 4%. The “% c-Myc gene expression” value in assay [2] was found to be 50 ± 7%. The “PD-L1 localisation (confocal images)” value in assay [3] was “accumulates in the cytosol”. For the same compound, the remaining activity at 100 µM was 58 ± 10% in assay [4] (A549, A-549, 100 µM); 47 ± 1% in assay [4] (HT-29, 100 µM); 108 ± 13% in assay [4] (MCF7, MCF-7, 100 µM); 77 ± 4% in assay [5] (setting [9]); 80 ± 2% in assay [5] (setting [10]); 52 ± 9% in assay [5] (setting [11]). The results for the inhibition at 100 µM in assay [5] (A-549 co-cultured with Jurkat T cells), in assay [5] (HT-29 co-cultured with Jurkat T cells) and in assay [5] (setting [12]) were about 20%, about 20% and 60 to 70%, respectively. For the same compound, the “membrane PD-L1 inhibition rate” value in assay [5] (MCF-7 co-cultured with Jurkat T cells, 100 μM) is “half”.

`Cc1c(COc2ccc(CN3CCCCC3C(=O)O)cc2Br)cccc1-c1ccccc1` (centres unmarked) [BMS-8, reference compound]: the “% c-Myc” value in assay [1] (setting [6]) turned out to be 142 ± 8%; in assay [1] (setting [7]), 119 ± 9%; in assay [1] (setting [8]) it was 130 ± 12%. Besides, in assay [2], the “% c-Myc gene expression” value is 30 ± 10%. Also, the “PD-L1 localisation (confocal images)” value in assay [3] is given as “located preferentially in the nucleus”. For the same compound, the remaining activity at 100 µM worked out at 70 ± 8% in assay [4] (A549, A-549, 100 µM); 68 ± 10% in assay [4] (HT-29, 100 µM); 77 ± 3% in assay [4] (MCF7, MCF-7, 100 µM); 103 ± 3% in assay [5] (setting [9]); 105 ± 3% in assay [5] (setting [10]); 97 ± 33% in assay [5] (setting [11]).

With `COc1ccc(C(OCCc2ccc(CCn3cc(-c4ccccc4Br)nn3)cc2)(c2ccccc2)c2ccc(OC)cc2)cc1` [Compound 7, 1-(4-(2-(bis(4-methoxyphenyl)(phenyl)methoxy)ethyl)phenethyl)-4-(2-bromophenyl)-1H-1,2,3-triazole], the “% c-Myc” value in assay [1] (setting [6]) was determined as 67 ± 6%; in assay [1] (setting [7]), 43 ± 7%; in assay [1] (setting [8]), 51 ± 3%. In addition, the “% c-Myc gene expression” value in assay [2] was 12 ± 5%. Moreover, the “PD-L1 localisation (confocal images)” value in assay [3] was “preferentially in cytosol”. In addition, the remaining activity at 100 µM in assay [4] (A549, A-549, 100 µM) was 86 ± 20%; in assay [4] (HT-29, 100 µM), 45 ± 7%; in assay [4] (MCF7, MCF-7, 100 µM) it was 80 ± 4%; in assay [5] (setting [9]), 73 ± 6%; in assay [5] (setting [10]) it was 89 ± 4%; in assay [5] (setting [11]), 50 ± 14%. In addition, in assay [5] (setting [12]), the inhibition at 100 µM fell in the range of 60 to 70%.

`COc1ccc(C(OCCc2ccc(CCn3cc(-c4cccc(Br)c4)nn3)cc2)(c2ccccc2)c2ccc(OC)cc2)cc1` [Compound 5, 1-(4-(2-(bis(4-methoxyphenyl)(phenyl)methoxy)ethyl)phenethyl)-4-(3-bromophenyl)-1H-1,2,3-triazole]: the results for the “% c-Myc” value in assay [1] (setting [6]), in assay [1] (setting [7]) and in assay [1] (setting [8]) were 72 ± 9%, 66 ± 10% and 61 ± 11%, respectively. Further, in assay [2], the “% c-Myc gene expression” value turned out to be 33 ± 5%. Also, the “PD-L1 localisation (confocal images)” value in assay [3] is “accumulated in the interface of cells and in the nucleus”. The remaining activity at 100 µM in assay [4] (A549, A-549, 100 µM) is 70 ± 16%; in assay [4] (HT-29, 100 µM) it was 38 ± 1%; in assay [4] (MCF7, MCF-7, 100 µM), 87 ± 1%; in assay [5] (setting [9]), 115%; in assay [5] (setting [10]), 153 ± 17%; in assay [5] (setting [11]), 43 ± 6%. Also, the inhibition at 100 µM in assay [5] (setting [12]) lay within 60 to 70%.
